US20210284621A1 (priority 2018, published 2021)
Where two headings read alike, the source gives them in different places.

Tests used:
CB1 receptor [1] = target: T1, CB1 receptor (Homo sapiens, UniProt P21554); experiment: CB1 competitive radioligand binding assay ([3H] SR141716A); design: expressed in transfected cells; host or cells: Chem-1 cells
Method: (§1) J Med Chem. 41(26): 5177-5187 (1998); and Munro S., et al. Molecular characterization of a peripheral receptor for cannabinoids. Nature 365:61-65 (1993).
CB1 Radioligand Binding Assay: A compound of the invention (0.5 μM in 1% DMSO) was incubated with Chem-1 cells expressing human recombinant CB1 receptor in buffer (50 mM HEPES, pH 7.4, 5 mM MgCl2, 1 mM CaCl2, 0.2% BSA) for 90 minutes at 37° C. in the presence of 2.0 nM [H^3] SR141716A (CB1 radioligand). % Inhibition was determined as a function of radioligand binding to the CB1 receptor.

CB2 receptor [2] = target: T2, CB2 receptor (Homo sapiens, UniProt P34972); experiment: cAMP Assay #2: Hit Hunter cAMP assay, Gi-coupled agonist activity, CB2; format: cell-based; design: host or cells: cAMP Hunter cell lines; conditions: for CB2 fold selectivity: CB1 EC50 / CB2 EC50
T2 sequence (P34972 whole entry): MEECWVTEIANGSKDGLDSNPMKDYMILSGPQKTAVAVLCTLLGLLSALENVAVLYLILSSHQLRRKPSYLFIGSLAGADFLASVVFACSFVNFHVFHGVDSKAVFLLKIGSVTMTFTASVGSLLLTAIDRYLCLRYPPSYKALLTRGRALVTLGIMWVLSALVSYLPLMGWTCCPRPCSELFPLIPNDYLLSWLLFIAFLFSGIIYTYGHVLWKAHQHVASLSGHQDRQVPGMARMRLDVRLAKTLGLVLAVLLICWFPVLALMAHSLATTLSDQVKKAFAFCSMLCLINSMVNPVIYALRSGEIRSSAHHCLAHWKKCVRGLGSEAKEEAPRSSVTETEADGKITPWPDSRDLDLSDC
Method: (§2) Compounds of the invention were assayed in the Hit Hunter® cAMP assay to determine Gi-coupled agonist activity on the CB1 and CB2 receptors, the results of which are provided in Table 5.
(§3) The Hit Hunter® cAMP assay monitors the activation of a GPCR via Gi and […] secondary messenger signaling in a homogenous, non-imaging assay format using a technology developed by DiscoverX called Enzyme Fragment Complementation (EFC) with β-galactosidase (β-Gal) as the functional reporter. […] ED is fused to cAMP and in the assay competes with cAMP generated by cells for binding to a cAMP-specific antibody. Active β-Gal is formed by complementation of exogenous EA to any unbound ED cAMP. Active enzymes can then convert a chemiluminescent substrate, generating an output signal detectable on a standard microplate reader.
(§4) cAMP Hunter cell lines were expanded from freezer stocks according to standard procedures. Cells were seeded in a total volume of 20 μL into white walled, 384-well microplates and incubated at 37° C. for the appropriate time prior to testing. cAMP modulation was determined using the DiscoverX Hit Hunter cAMP XS+ assay. For Gi agonist activity determination, cells were incubated with sample in the presence of EC80 forskolin to induce response (20 μM and 25 μM in the CB1 and CB2 assays, respectively). Media was aspirated from cells and replaced with 15 μL 2:1 HBSS/10 mM HEPES:cAMP XS+Ab reagent.
(§5) Intermediate dilution of sample stocks was performed to generate 4× sample in assay buffer. 5 μL of 4× compound was added to cells and incubated at 37° C. or room temperature for 30 or 60 minutes. Final vehicle concentration was 1%. Assay signal was generated through incubation with 20 μL cAMP XS+ED/CL lysis cocktail for one hour at room temperature. Microplates were read following signal generation with a PerkinElmer Envision™ instrument for chemiluminescent signal detection. Compound activity was analyzed using CBIS data analysis suite (Chem Innovation, CA). For agonist assays, percentage activity was calculated using the following formula: % Activity=100%×(1−(mean RLU of test sample−mean RLU of Max control ligand)/(mean RLU of vehicle control−mean RLU of Max control ligand). Control ligand was the non-selective CB1/CB2 agonist CP55,940.

CB1 receptor [3] = target: T1, CB1 receptor; experiment: cAMP Assay #2: Hit Hunter cAMP assay, Gi-coupled agonist activity, CB1; format: cell-based; design: host or cells: PathHunter cell lines
Method: as §2, §3, §4, §5

CB1 receptor [4] = target: T1, CB1 receptor; experiment: cell-based; design: host or cells: PathHunter cell lines
Method: (§6) The PathHunter® β-Arrestin assay monitors the activation of a GPCR in a homogenous, non-imaging assay format using a technology developed by DiscoverX called Enzyme Fragment Complementation (EFC) with β-galactosidase (3-Gal) as the functional reporter. […] EA is fused to β-Arrestin and PK is fused to the GPCR of interest.
(§7) PathHunter cell lines were expanded from freezer stocks according to standard procedures. Cells were seeded in a total volume of 20 μL into white walled, 384-well microplates and incubated at 37° C. for the appropriate time prior to testing. For agonist activity determination, cells were incubated with sample to induce response. Intermediate dilution of sample stocks was performed to generate 5× sample in assay buffer. 5 μL of 5× sample was added to cells and incubated at 37° C. or room temperature for 90 to 180 minutes. Vehicle concentration was 1%. Assay signal was generated through a single addition of 12.5 or 15 μL (50% v/v) of PathHunter Detection reagent cocktail, followed by a one hour incubation at room temperature. Microplates were read following signal generation with a PerkinElmer Envision™ instrument for chemiluminescent signal detection. Compound activity was analyzed using CBIS data analysis suite (ChemInnovation, CA). For agonist assays, percentage activity was calculated using the following formula: % Activity=100%×(mean RLU of test sample− mean RLU of vehicle control)/(mean MAX control ligand− mean RLU of vehicle control).

CB2 receptor [5] = target: T2, CB2 receptor; experiment: cell-based; design: host or cells: cAMP Hunter cell lines; conditions: PathHunter agonist mode; read-out: CB2 Activity (β-Arrestin)
Method: as §6, §7

CB2 receptor [6] = target: T2, CB2 receptor; experiment: CB2 competitive radioligand binding assay ([3H] WIN-55,212-2); design: expressed in transfected cells; host or cells: CHO-K1 cells
Method: as §1
CB2 Radioligand Binding Assay: A compound of the invention (0.05 μM in 1% DMSO) was incubated with CHO-K1 cells expressing human recombinant CB2 receptor in buffer (20 mM HEPES, pH 7.0, 0.5% BSA) for 90 minutes at 37° C. in the presence of 2.4 nM [H^3] WIN-55,212-2 (CB2 radioligand). % Inhibition was determined as a function of radioligand binding to the […].

[7] = Hit Hunter cAMP, 25 μM forskolin, control ligand CP55,940, read-out: CB2, EC50
[8] = Hit Hunter cAMP, 20 μM forskolin, control ligand CP55,940, read-out: CB1, EC50
[9] = PathHunter agonist mode, read-out: CB1 Activity (β-Arrestin)

T1 sequence (P21554 whole entry): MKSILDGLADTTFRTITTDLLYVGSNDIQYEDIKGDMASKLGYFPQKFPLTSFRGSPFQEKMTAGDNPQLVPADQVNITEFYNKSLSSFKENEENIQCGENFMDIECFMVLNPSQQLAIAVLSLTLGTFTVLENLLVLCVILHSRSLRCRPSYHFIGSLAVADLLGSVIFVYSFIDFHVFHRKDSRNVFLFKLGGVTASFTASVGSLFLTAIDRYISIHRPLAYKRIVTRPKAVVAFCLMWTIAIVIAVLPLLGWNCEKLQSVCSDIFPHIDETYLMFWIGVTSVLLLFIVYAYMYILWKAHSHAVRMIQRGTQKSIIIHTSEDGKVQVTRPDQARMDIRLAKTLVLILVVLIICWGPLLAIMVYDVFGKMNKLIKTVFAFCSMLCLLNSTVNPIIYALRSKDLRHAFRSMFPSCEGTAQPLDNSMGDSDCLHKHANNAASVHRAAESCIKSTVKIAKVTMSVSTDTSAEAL

With CCCCCCC(C)(C)c1cc(O)c2c(c1)OC(C)(C)[C@@H]1CC=C(C(=O)NC3CCCCC3)C[C@@H]21 [Compound 16, (6aR,10aR)—N-Cyclohexyl-1-hydroxy-6,6-dimethyl-3-(2-methyloctan-2-yl)-6a,7,10,10a-tetrahydro-6H-benzo[c]chromene-9-carboxamide] the inhibition at 0.5 µM (CB1 receptor [1]; 0.5 μM compound, 2.0 nM [3H] SR141716A, 90 min 37° C.) was 84%, the Ki (CB1 receptor [1]; Table 2, read-out: CB1 Binding Ki) was 94 nM and the EC50 (CB2 receptor [2]; [7]) was 2.7 nM. For the same compound, the CB2 fold selectivity (CB2 receptor [2]; Hit Hunter cAMP) was greater than 1000, the EC50 (CB1 receptor [3]; [8]) was greater than 3000 nM and the EC50 (CB1 receptor [4]; [9]) was greater than 3000 nM. For the same compound, the EC50 (CB2 receptor [5]) was 5 nM, the inhibition at 0.05 µM (CB2 receptor [6]; 0.05 μM compound, 2.4 nM [3H] WIN-55,212-2, 90 min 37° C.) was 57% and the “Fold Selectivity (CB1/CB2)” value (CB2 receptor [6]; Table 2, ratio of Ki CB1/CB2) was 4. For the same compound, the Ki (CB2 receptor [6]; Table 2, read-out: CB2 Binding Ki) was 26 nM.

With CCCCCCC(C)(C)c1cc(O)c2c(c1)OC(C)(C)[C@@H]1CC=C(C(=O)NOCCO)C[C@@H]21 [Compound 41] the Ki (CB1 receptor [1]; Table 3, read-out: Ki CB1) was 27.4 nM, the EC50 (CB2 receptor [2]; [7]) was 1.5 nM and the CB2 fold selectivity (CB2 receptor [2]; Hit Hunter cAMP) was 4.3. The EC50 (CB1 receptor [3]; [8]) was 6.3 nM, the EC50 (CB1 receptor [4]; [9]) was 37.8 nM and the EC50 (CB2 receptor [5]) was 1.8 nM. The “Fold Selectivity (CB1/CB2)” value (CB2 receptor [6]; Table 3, ratio of Ki CB1/CB2) was 6.4 and the Ki (CB2 receptor [6]; Table 3, read-out: Ki CB2) was 4.3 nM.

For CCCCCCC(C)(C)c1cc(O)c2c(c1)OC(C)(C)[C@@H]1CC=C(C(=O)N[C@H]3C[C@H](O)C3)C[C@@H]21 [Compound 45, (6aR,10aR)-1-hydroxy-N-((1R,3R)-3-hydroxycyclobutyl)-6,6-dimethyl-3-(2-methyloctan-2-yl)-6a,7,10,10a-tetrahydro-6H-benzo[c]chromene-9-carboxamide], the Ki (CB1 receptor [1]) was 144 nM, the EC50 (CB2 receptor [2]) was 12 nM and the CB2 fold selectivity (CB2 receptor [2]; Hit Hunter cAMP) was 22.9. The EC50 (CB1 receptor [3]) was 274 nM, the EC50 (CB1 receptor [4]) was 4980 nM and the EC50 (CB2 receptor [5]) was 6 nM. The Ki (CB2 receptor [6]) was 10.1 nM and the “Fold Selectivity (CB1/CB2)” value (CB2 receptor [6]; Table 3, ratio of Ki CB1/CB2) was 14.3.

CCCCCCC(C)(C)c1cc(O)c2c(c1)OC(C)(C)[C@@H]1CC=C(C(=O)N[C@H]3C[C@@H](O)C3)C[C@@H]21 [Compound 46, (6aR,10aR)-1-hydroxy-N-((1 S,3S)-3-hydroxycyclobutyl)-6,6-dimethyl-3-(2-methyloctan-2-yl)-6a,7,10,10a-tetrahydro-6H-benzo[c]chromene-9-carboxamide] showed a Ki (CB1 receptor [1]) of 90.3 nM, an EC50 (CB2 receptor [2]) of 8.4 nM and a CB2 fold selectivity (CB2 receptor [2]; Hit Hunter cAMP) of 31.4. For the same compound, the EC50 (CB1 receptor [3]) was 263 nM, the EC50 (CB1 receptor [4]) was 6000 nM and the EC50 (CB2 receptor [5]) was 3.6 nM. The Ki (CB2 receptor [6]) was 22.9 nM and the “Fold Selectivity (CB1/CB2)” value (CB2 receptor [6]; Table 3, ratio of Ki CB1/CB2) was 3.9.

CCCCCCC(C)(C)c1cc(O)c2c(c1)OC(C)(C)[C@@H]1CC=C(C(=O)NN3CCCCC3)C[C@@H]21 [Compound 48, (6aR,10aR)-1-hydroxy-6,6-dimethyl-3-(2-methyloctan-2-yl)-N-(piperidin-1-yl)-6a,7,10,10a-tetrahydro-6H-benzo[c]chromene-9-carboxamide] gave a Ki (CB1 receptor [1]) of 233 nM, an EC50 (CB2 receptor [2]) of 7 nM and a CB2 fold selectivity (CB2 receptor [2]; Hit Hunter cAMP) greater than 428. It also gave an EC50 (CB1 receptor [3]) greater than 3000 nM, an EC50 (CB1 receptor [4]) greater than 3000 nM and an EC50 (CB2 receptor [5]) of 4.4 nM. The Ki (CB2 receptor [6]) was 9.2 nM and the “Fold Selectivity (CB1/CB2)” value (CB2 receptor [6]; Table 3, ratio of Ki CB1/CB2) was 25.3.

Compound CC(C)(CCCCCCO)c1cc(O)c2c(c1)OC(C)(C)[C@@H]1CC=C(C(=O)O)C[C@@H]21 [Compound 57, (6aR,10aR)-1-hydroxy-3-(8-hydroxy-2-methyloctan-2-yl)-6,6-dimethyl-6a,7,10,10a-tetrahydro-6H-benzo[c]chromene-9-carboxylic acid] has a Ki (CB1 receptor [1]) of 162 nM, an EC50 (CB2 receptor [2]) of 39.7 nM and a CB2 fold selectivity (CB2 receptor [2]; Hit Hunter cAMP) of 2.3. The EC50 (CB1 receptor [3]) was 92.1 nM, the EC50 (CB1 receptor [4]; [9]) was 290 nM and the EC50 (CB2 receptor [5]) was 22 nM. The Ki (CB2 receptor [6]) was 56.3 nM and the “Fold Selectivity (CB1/CB2)” value (CB2 receptor [6]; Table 3, ratio of Ki CB1/CB2) was 2.9.

With CCCCCCC(C)(C)c1cc(O)c2c(c1)OC(C)(C)[C@@H]1CC=C(C(=O)NC(C)(C)C)C[C@@H]21 [Compound 95, (6aR,10aR)-N-(tert-butyl)-1-hydroxy-6,6-dimethyl-3-(2-methyloctan-2-yl)-6a,7,10,10a-tetrahydro-6H-benzo[c]chromene-9-carboxamide] the Ki (CB1 receptor [1]) was 31.1 nM, the EC50 (CB2 receptor [2]) was 1.2 nM and the CB2 fold selectivity (CB2 receptor [2]; Hit Hunter cAMP) was 11.0. The EC50 (CB1 receptor [3]) was 13.2 nM, the EC50 (CB1 receptor [4]) was 23.9 nM and the EC50 (CB2 receptor [5]) was 1.3 nM. The Ki (CB2 receptor [6]) was 3.2 nM and the “Fold Selectivity (CB1/CB2)” value (CB2 receptor [6]; Table 3, ratio of Ki CB1/CB2) was 9.7.

CCCCCCC(C)(C)c1cc(O)c2c(c1)OC(C)(C)[C@@H]1CC=C(C(=O)NO)C[C@@H]21 [Compound 105, (6aR,10aR)-N,1-dihydroxy-6,6-dimethyl-3-(2-methyloctan-2-yl)-6a,7,10,10a-tetrahydro-6H-benzo[c]chromene-9-carboxamide] showed a Ki (CB1 receptor [1]) of 9.2 nM, an EC50 (CB2 receptor [2]) of 11.2 nM and a CB2 fold selectivity (CB2 receptor [2]; Hit Hunter cAMP) of 1.0. It also gave an EC50 (CB1 receptor [3]) of 11.4 nM, an EC50 (CB1 receptor [4]) of 75.6 nM and an EC50 (CB2 receptor [5]) of 3.7 nM. The Ki (CB2 receptor [6]) was 24.1 nM and the “Fold Selectivity (CB1/CB2)” value (CB2 receptor [6]; Table 3, ratio of Ki CB1/CB2) was 0.4.

CCCCCCC(C)(C)c1cc(O)c2c(c1)OC(C)(C)[C@@H]1CC=C(C#N)C[C@@H]21 [Compound 112, (6aR,10aR)-1-hydroxy-6,6-dimethyl-3-(2-methyloctan-2-yl)-6a,7,10,10a-tetrahydro-6H-benzo[c]chromene-9-carbonitrile] was tested, and the Ki (CB1 receptor [1]) was 1 nM, the EC50 (CB1 receptor [4]; [9]) was 2 nM and the EC50 (CB2 receptor [5]) was 1.4 nM. For the same compound, the Ki (CB2 receptor [6]) was 0.7 nM and the “Fold Selectivity (CB1/CB2)” value (CB2 receptor [6]; Table 3, ratio of Ki CB1/CB2) was 1.4.
